Data: publication PMC3139024 (Bioorganic & medicinal chemistry letters, 2011)

What was measured:
[1] = tested on: panel of 15 bacterial strains; assay: organism not typed; assay type: cell-based
[2] = tested on: Y79; assay: cytotoxicity profile, Y79; assay type: cell-based; conditions: Homo sapiens, Y79, read-out: Cytotoxicity IC50, Y79
[3] = molecular target: EcPDF (Escherichia coli, UniProt P0A6K3); assay: EcPDF inhibition, potency and selectivity profiling; assay type: biochemical; conditions: for EcPDF (%I): % Inhibition at 100 μM, average of duplicates, 100: ≥100 %I, 0: ≤0 %I
[4] = tested on: Meso47; assay: cytotoxicity profile, Meso47; assay type: cell-based; conditions: read-out: Cytotoxicity IC50, Meso47
[5] = tested on: HEK293; assay: cytotoxicity profile, HEK293; assay type: cell-based; conditions: Homo sapiens, HEK293, read-out: Cytotoxicity IC50, HEK293
[6] = molecular target: T1, HsPDF (Homo sapiens, UniProt Q9HBH1); assay: HsPDF inhibition, potency and selectivity profiling; assay type: biochemical; conditions: for inhibition at 100 µM: read-out: HsPDF (%I); for HsPDF (%I): % Inhibition at 100 μM, average of duplicates, 100: ≥100 %I, 0: ≤0 %I
T1 sequence (Q9HBH1 40-243): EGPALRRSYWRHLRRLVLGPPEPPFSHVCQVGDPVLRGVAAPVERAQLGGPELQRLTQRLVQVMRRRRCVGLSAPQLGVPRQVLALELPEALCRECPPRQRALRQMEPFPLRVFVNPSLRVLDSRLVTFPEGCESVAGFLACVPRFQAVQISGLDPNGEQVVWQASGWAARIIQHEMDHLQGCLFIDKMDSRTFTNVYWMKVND

[7] = tested on: HL-60/RV+; assay: cytotoxicity profile, HL-60/RV+; assay type: cell-based; conditions: Homo sapiens, HL-60, read-out: Cytotoxicity IC50, HL-60/RV+
[8] = molecular target: APN (Homo sapiens, UniProt P15144); assay: APN inhibition, metalloprotease selectivity panel; assay type: biochemical; conditions: % Inhibition at 100 μM, average of duplicates; 100: ≥100 %I; 0: ≤0 %I
[9] = molecular target: T2, MMP-1 (Homo sapiens, UniProt P03956); assay: MMP-1 inhibition, metalloprotease selectivity panel; assay type: biochemical; conditions: for MMP-1 (%I): % Inhibition at 100 μM, average of duplicates, 100: ≥100 %I, 0: ≤0 %I
T2 sequence (P03956 100-469): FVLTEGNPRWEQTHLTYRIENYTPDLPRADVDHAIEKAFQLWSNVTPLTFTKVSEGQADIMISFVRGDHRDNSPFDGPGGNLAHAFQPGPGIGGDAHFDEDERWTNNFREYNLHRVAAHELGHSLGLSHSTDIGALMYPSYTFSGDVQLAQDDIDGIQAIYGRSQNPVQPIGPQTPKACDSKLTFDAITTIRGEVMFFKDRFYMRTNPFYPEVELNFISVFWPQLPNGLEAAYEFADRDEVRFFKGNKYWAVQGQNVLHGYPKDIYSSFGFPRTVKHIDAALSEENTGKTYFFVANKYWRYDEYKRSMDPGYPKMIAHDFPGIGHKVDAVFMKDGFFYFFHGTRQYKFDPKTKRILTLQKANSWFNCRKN

[10] = tested on: CWR22; assay: cytotoxicity profile, CWR22; assay type: cell-based; conditions: CWR22, read-out: Cytotoxicity IC50, CWR22
[11] = tested on: HL-60 tumors; assay: mouse xenograft model using HL-60 cells; assay type: in vivo; conditions: dose of 15 mg/kg, pilot study
[12] = tested on: panel of nine well characterized cancer cell lines; assay: cytotoxicity profile across panel of nine cancer cell lines; assay type: cell-based; conditions: read-out: cytotoxicity IC50 range across cancer cell lines
[13] = tested on: metalloproteases tested; assay: activity toward the metalloproteases tested; assay type: biochemical; conditions: Suppl. Table 2

EcPDF, sequence (P0A6K3 whole entry): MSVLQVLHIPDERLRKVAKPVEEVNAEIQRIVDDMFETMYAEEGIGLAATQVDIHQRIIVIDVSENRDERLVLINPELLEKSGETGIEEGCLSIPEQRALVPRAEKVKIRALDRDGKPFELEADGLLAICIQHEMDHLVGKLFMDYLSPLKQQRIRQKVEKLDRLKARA
APN, sequence (P15144 whole entry, species assumed): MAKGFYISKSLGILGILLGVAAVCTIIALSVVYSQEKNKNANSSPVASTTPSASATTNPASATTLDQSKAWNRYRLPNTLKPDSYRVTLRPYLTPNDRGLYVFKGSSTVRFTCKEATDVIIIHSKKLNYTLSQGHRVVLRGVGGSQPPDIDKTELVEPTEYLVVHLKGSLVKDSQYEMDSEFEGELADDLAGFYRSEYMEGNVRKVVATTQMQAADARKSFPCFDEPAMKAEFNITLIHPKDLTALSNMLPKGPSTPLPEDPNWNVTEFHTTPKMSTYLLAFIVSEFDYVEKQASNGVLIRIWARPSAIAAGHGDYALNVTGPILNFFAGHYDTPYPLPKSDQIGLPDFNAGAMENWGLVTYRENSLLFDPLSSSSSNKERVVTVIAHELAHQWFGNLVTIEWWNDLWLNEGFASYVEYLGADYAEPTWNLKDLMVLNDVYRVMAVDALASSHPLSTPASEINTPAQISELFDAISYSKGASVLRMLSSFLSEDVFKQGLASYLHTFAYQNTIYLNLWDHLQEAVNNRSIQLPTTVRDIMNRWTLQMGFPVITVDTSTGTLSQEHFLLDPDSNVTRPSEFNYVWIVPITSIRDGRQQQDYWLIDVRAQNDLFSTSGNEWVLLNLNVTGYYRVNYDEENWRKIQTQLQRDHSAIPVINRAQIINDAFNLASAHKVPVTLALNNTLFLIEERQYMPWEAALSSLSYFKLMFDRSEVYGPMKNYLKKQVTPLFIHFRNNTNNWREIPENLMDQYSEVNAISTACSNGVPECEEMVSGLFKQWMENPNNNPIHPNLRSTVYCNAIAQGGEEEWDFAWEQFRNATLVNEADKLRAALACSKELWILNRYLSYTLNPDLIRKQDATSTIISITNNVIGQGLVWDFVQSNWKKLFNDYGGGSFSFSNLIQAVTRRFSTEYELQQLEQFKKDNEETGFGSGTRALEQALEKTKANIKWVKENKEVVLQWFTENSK

| SMILES | IC50 [3] [µM] | IC50 [4] [µM] | IC50 [5] [µM] | inhibition at 100 µM [6] [%] | also measured |
| --- | --- | --- | --- | --- | --- |
| CCCCC[C@H](CC(=O)NO)C(=O)N[C@H](C(=O)N1CCC[C@H]1CO)C(C)C [Compd 1, actinonin, reference compound] |  |  |  |  | antibacterial activity, number of strains ([1]; panel of 15 bacterial strains): active in 12 out of the 15 strains tested |
| O=C1C(=O)c2c(C(=O)c3ccccc3)coc2C(Cl)=C1Cl [Compd 5] | > 100 | ≥ 100 | ≥ 100 | ≥ 100 | IC50 [2]: ≥ 100 µM; MIC [1]: > 64 µg/mL; IC50 [7]: ≥ 100 µM |
| O=C1C=Cc2occ(C(=O)c3ccccc3)c2C1=O [Compd 16] | > 100 |  |  | ≥ 100 | APN (%I) [8]: low activity; EcPDF (%I) [3]: low activity; MMP-1 (%I) [9]: low activity; HsPDF (%I) [6]: completely inhibited |
| COc1ccc(C(=O)c2coc3c2C(=O)C(=O)C=C3)cc1 [Compd 17] | > 100 | ≥ 100 |  |  | APN (%I) [8]: low activity; EcPDF (%I) [3]: low activity; MMP-1 (%I) [9]: low activity; HsPDF (%I) [6]: completely inhibited |
| COc1ccc(C(=O)c2coc3c2C(=O)C(=O)C=C3Cl)cc1 [Compd 19] | > 100 | ≥ 100 |  | ≥ 100 |  |
| COc1ccc(C(=O)c2coc3c2C(=O)C(=O)C(Cl)=C3)cc1 [Compd 20] | > 100 |  | ≥ 100 |  |  |
| COc1ccc(C(=O)c2coc3c2C(=O)C(=O)C=C3Br)cc1 [Compd 21] | > 100 | ≥ 100 |  | ≥ 100 |  |
| COc1ccc(C(=O)c2coc3c2C(=O)C(=O)C(Cl)=C3Cl)cc1 [Compd 22] | > 100 | ≥ 100 |  |  | EcPDF (%I) [3]: no significant activity; MIC [1]: > 64 µg/mL; MMP-1 (%I) [9]: no significant activity; inhibition at 100 µM ([9]; read-out: MMP-1 (%I)): ≤ 0% |
| COc1ccc(C(=O)c2coc3c2C(=O)C(=O)C(Cl)=C3Cl)cc1OC [Compd 23] |  |  | ≥ 100 | ≥ 100 | IC50 [7]: ≥ 100 µM |
| COc1cc(C(=O)c2coc3c2C(=O)C(=O)C(Cl)=C3Cl)cc(OC)c1OC [Compd 24] | > 100 | ≥ 100 |  | ≥ 100 |  |
| COc1ccc(C(=O)c2coc3c2C(=O)C(=O)C(Br)=C3Br)cc1 [Compd 25] | > 100 | ≥ 100 | ≥ 100 | ≥ 100 | IC50 [7]: ≥ 100 µM |
| COc1ccc(C(=O)c2coc3c2C(=O)C(=O)C(Br)=C3Br)cc1OC [Compd 26] | > 100 | ≥ 100 | ≥ 100 | ≥ 100 | IC50 [2]: ≥ 100 µM; IC50 [10]: ≥ 100 µM |
| COc1cc(C(=O)c2coc3c2C(=O)C(=O)C(Br)=C3Br)cc(OC)c1OC [Compd 27] | > 100 |  |  | ≥ 100 | delay of growth of HL-60 tumors [11]: up to 40%; IC50 [12]: 2.8 to 37 µM; EcPDF (IC50, μM) [3]: no significant activity |
| COc1ccc(C(=O)c2coc3c2C(=O)C(=O)c2ccccc2-3)cc1 [Compd 32] |  |  |  |  | activity toward any of the metalloproteases tested [13]: no activity |
| COc1ccc(C(=O)c2coc3c2C(=O)C(=O)c2ccccc2-3)cc1OC [Compd 33] |  |  |  |  | activity toward any of the metalloproteases tested [13]: no activity |
| COc1cc(C(=O)c2coc3c2C(=O)C(=O)c2ccccc2-3)cc(OC)c1OC [Compd 34] |  |  |  |  | activity toward any of the metalloproteases tested [13]: no activity |
